How the values were obtained:
Type in all cases: in vivo, Sprague-Dawley rats
[1] = test system: middle cerebral artery occlusion (MCAo) stroke rats; assay: Elevated body swing test (EBST) after MCAo stroke
From the text: (§1) A. Stroke surgery. Sixty (60) adult Sprague-Dawley, male rats (weighing around 250 g at beginning of the study) received experimental stroke surgery using the middle cerebral artery occlusion (MCAo) model, under aseptic conditions. […] were anesthetized with 1-2% isoflurane in nitrous oxide/oxygen (69%/30%) using a face mask and checked for pain reflexes. Under deep anesthesia, animals underwent the MCAo surgery which entails insertion of a filament through the carotid artery to reach the junction of the MCA, thus blocking the blood flow from the common carotid artery, as well as from the circle of Willis.
The right common carotid artery was identified and isolated through a ventral midline cervical incision and suture size 4-0, made of sterile, non-absorbable suture (Ethicon, Inc.), with the diameter of the suture tip tapered to 24 to 26-gauge size using a rubber cement. […]
To further ensure similar degree of stroke insults, physiological parameters including PaO2, PaCO2, and plasma pH measurements were monitored. Based on laser Doppler readouts and behavioral tests after MCAs, a total of 48 animals were enrolled in this study. […]
C. […] The direction of the swing, either left or right, was counted once the animals head moves sideways approximately 10 degrees from the midline position of the body. […]

[2] = test system: middle cerebral artery occlusion (MCAo) stroke rats; assay: Bederson neurological exam after MCAo stroke
From the text: as §1
The right common carotid artery was identified and isolated through a ventral midline cervical incision and suture size 4-0, made of sterile, non-absorbable suture (Ethicon, Inc.), with the diameter of the suture tip tapered to 24 to 26-gauge size using a rubber cement. About 15 to 17 mm of the filament was inserted from the junction of the external and internal carotid arteries to block the MCA. The right MCA was occluded for one hour. A heating pad and a rectal thermometer allowed maintenance of body temperature within normal limits (37±0.3° C.).
To further ensure similar degree of stroke insults, physiological parameters including PaO2, PaCO2, and plasma pH measurements were monitored. Based on laser Doppler readouts and behavioral tests after MCAs, a total of 48 animals were enrolled in this study.
B. Drug Treatment. In the treated subjects, 30 mg/kg of the phosphate of formula (2) wherein R^1 is isoamyl (NSI-189 H3PO4 (mol. wt. 464.50)), 99.8% pure based on the weight of the API (active pharmaceutical ingredient) base without the weight of phosphate salt was administered orally in 0.03N HCl in deionized water (n=24) or vehicle (n=24) was administered following MCAo 6 hours after stroke, and daily for the next 12 weeks.
About one hour after the EBST, the Bederson neurological exam was conducted using 3 tests: (1) forelimb retraction—measuring the ability of the rat to replace the forelimb after it was displaced laterally by 2 to 3 cm, graded from 0 (immediate replacement) to 3 (replacement after several seconds or no replacement); (2) beam walking ability, graded 0 for a rat that readily traversed a 2.4-cm-wide, 80-cm-long beam to 3 for a rat unable to stay on the beam for 10 seconds; and (3) bilateral forepaw grasp—the ability to hold onto a 2-mm-diameter steel rod, graded 0 for a rat with normal forepaw grasping behavior to 3 for a rat unable to grasp with the forepaws. The scores from all 3 tests, which were done over a period of about 15 minutes on each assessment day, were added to give a mean neurologic deficit score (maximum possible score, 9 points divided by 3 tests=3). […]

MAP2 = MAP2 immunohistochemistry of stroke brains
From the text: (§2) At scheduled intervals post-stroke (either 12 weeks or 24 weeks), rats of Example 1 were randomly euthanized (n=12 per treatment), perfused by transcardial perfusion with 4% paraformaldehyde. The brains were dissected, post-fixed for overnight in 4% paraformaldehyde, then subsequently immersed in 30% sucrose until immunohistochemical processing. Brain section preparations were designed to identify stroke-induced cerebral infarction and NSI-189-induced neurogenic effects.
(§3) Brains were embedded in gelatin blocks and sectioned on a freezing sliding microtome at 40-μm. The sections were washed in PBS 5×10 min to remove the antigen preservative solution. Endogenous peroxidase was blocked using 3% H2O2 for 15 minutes. The sections were then incubated in 1% Triton-X100 for 30 minutes, and then blocked with 5% Normal Horse Serum (NETS) for 1 hour. The sections were incubated with the primary antibody that binds Ki67 (1:2000, Cat. #: ab16667, Abcam, CA) or that binds MAP2 (1:2000, Cat. #: AB5622, Millipore, MA) overnight, rinsed 5×5 min in PBS prior to pre-incubation in 5% NHS for 1 hour, then incubated with the secondary antibody which corresponded to the respective host of the primary antibody (Donkey or Rabbit, 1:2000, Cat. #: 711-066-152, Jackson ImmunoResearch Laboratories, Inc, PA) for 90 minutes. After rinsing in PBS (5×5 min), the sections were incubated with peroxidase-conjugated streptavidin (1:5000, Cat. #: 016-030-084, Jackson ImmunoResearch Laboratories, Inc, PA) with 1% NHS. The sections were washed 5×5 min in PBS after the streptavidin, prior to developing with DAB (3,3′-Diaminobenzidine Tetrahydrochloride Hydrate, Cat #: 1001306853, Sigma-Aldrich, St. Louis, Mo.) and Nickel chloride. After DAB processing, the sections were rinsed, mounted, and air-dried overnight. The slides were dehydrated, and coverslipped with DPX Mounting Medium (Cat #: 13512, Electron Microscopy Sciences, Hatfield, Pa.).
(§4) The slides were imaged and reviewed under Nikon bright-field microscope (Nikon, Tokyo, Japan). The regions of interest (ROIs), including the cerebral cortex, the hippocampal subfields (CA1+CA2, CA3 and DG) were contoured rostro-caudally and the immunoreactivity of the MAP2 density was measured by Nikon NIS-Element software and Ki67+ cells counted rostro-caudally along the subgranular zone (SGZ) by Image-Pro Premier (v10.10), respectively. The slides were coded and blinded to the analysts during the course of the study. After completion, quantitative data were extracted and transferred for the statistical analysis (Prism, GraphPad®, La Jolla, Calif.). The data values between groups were compared using ANOVA with Tukey's post-hoc tests (p<0.05).

Ki67 = Ki67 immunohistochemistry of stroke brains
From the text: as §2
as §3, with “The sections were washed 5×5 min in PBS after the streptavidin, prior to developing with DAB (3,3′-Diaminobenzidine Tetrahydrochloride Hydrate, Cat #: 1001306853, Sigma-Aldrich, St. Louis, Mo.) and Nickel chloride. After DAB processing, the sections were rinsed, mounted, and air-dried overnight. The slides were dehydrated, and coverslipped with DPX Mounting Medium (Cat #: 13512, Electron Microscopy Sciences, Hatfield, Pa.).” left out
as §4, with “The slides were coded and blinded to the analysts during the course of the study.” left out, “The data values between groups were compared using ANOVA with Tukey's post-hoc tests (p<0.05).” left out

[3] = 12 weeks and 24 weeks post-stroke, vs vehicle, p's>0.05
[4] = vs vehicle-treated stroke animals

## CC(C)CCNc1ncccc1C(=O)N1CCN(Cc2ccccc2)CC1.O=P(O)(O)O [NSI-189 phosphate]
[1]; 30 mg/kg orally 6 hours after stroke and daily for 12 weeks, vs vehicle
  restoring motor skills in the EBST: successful in restoring motor skills
[1]; 30 mg/kg orally daily for 12 weeks, controls showed no such recovery
  performance in the EBST (FIG. 1): recovered performance in the EBST almost to baseline levels
[2]; MCAo rats, 30 mg/kg orally 6 hours after stroke and daily for 12 weeks, vs vehicle
  restoring motor skills in the Bederson neurological exam: successful in restoring motor skills
[2]; MCAo rats, 30 mg/kg orally daily for 12 weeks, after 6 months
  performance in the Bederson neurological exam (FIG. 2): performance approaching that of control even after 6 months
[2]; day 3 post stroke, p<0.05
  control of motor skills compared to vehicle animals: showed control of motor skills as early as day 3 post stroke
[2]; during 12 weeks of drug treatment and the next 12 weeks after withdrawal, p<0.05
  improvement of motor skills over time compared to untreated animals: continued to improve over time compared to untreated animals
MAP2; 12-week period, vs vehicle, p's<0.05
  MAP2 density in the cerebral cortex: amplified MAP2 density
MAP2; 12-week time point, vs vehicle, p's<0.05
  MAP2 density in the hippocampus: increased MAP2 density
MAP2; [3]
  cerebral infarction by MAP2 expression in the cortex and striatum: did not significantly differ between groups
MAP2; 24-week time point, vs vehicle
  MAP2 density in the cerebral cortex: only detected at the 12-week period
MAP2; 24-week time point, vs vehicle, p's<0.05
  MAP2 density in the hippocampus: increased MAP2 density
MAP2; [4]
  MAP2 staining (neurogenesis) in the peri-infarct cortex: increased Ki67 and MAP2 staining
Ki67; [3]
  Ki67 level in hippocampal subgranular zone (SGZ): comparable levels of Ki67
  Ki67 level in subventricular zone (SVZ): comparable levels of Ki67
Ki67; [4]
  Ki67 staining (cell proliferation) in the peri-infarct cortex: increased Ki67
